Source: patent publication US20100204148A1, “(D-LEU7 ) -HISTRELIN AS A THERAPEUTIC AGENT” (priority 2007, published 2010)

Legend:
[1] = tested on: RAW 264.7 cells; assay: Phagocytosis assay (Fluorescein-labeled Escherichia coli); format: cell-based, mouse; conditions: 10 micrograms per ml, flow cytometry
[2] = tested on: HCMV strain AD169; assay: HCMV plaque reduction assay in MRC-5 cells; format: cell-based; conditions: HCMV in MRC-5 cells; peptide 10 micrograms per ml; 7-10 days
Excerpt: Ganciclovir was used as positive control.

[3] = tested on: Streptococcus pneumoniae; format: cell-based; conditions: 10 micrograms per ml
[4] = tested on: macrophages from human PBMC; assay: TNF alpha production assay (LPS-stimulated macrophages, ELISA); format: cell-based; conditions: 10 micrograms per ml, lipopolysaccharide 200 ng/ml, overnight
Excerpt: Not stimulated macrophages served as negative background control.

[5] = tested on: HIV-1IIIB; assay: HIV-1 antiviral assay (CPE reduction) in CEM-SS cells; format: cell-based; conditions: peptide 10 micrograms per ml; 6 days post-infection; MTS
[6] = in vitro; conditions: human, MRC-5 cells (human embryonal lung fibroblasts)
Procedure: The following day, peptide were added and tested in duplicates.

[7] = tested on: MRSA; conditions: 10 micrograms per ml
[8] = tested on: hepatitis B virus (HBV) ayw strain; assay: HBV experimental assay system (secreted HBV DNA, TaqMan PCR); conditions: HepG2-2.2.15; peptide 10 micrograms per ml; six days; HBV DNA in supernatant
[9] = tested on: spleen cells of Ovalbumin-immunized Balb/c mice; assay: Th1/Th2 cytokine profiling assay; format: cell-based, mouse; conditions: 10 micrograms per ml; Ovalbumin restimulation; 72 hours
[10] = in vitro; conditions: human, CEM-SS cells
[11] = tested on: Human Peripheral Blood Mononuclear Cells (PBMC); assay: B cell proliferation assay (SAC plus IL-2, 3H-thymidine); conditions: 10 micrograms per ml
[12] = in vitro; conditions: human
[13] = tested on: Human A549 cells; assay: Apoptosis prevention assay (C2 ceramide, Annexin-5); format: cell-based; conditions: 30 min pretreatment with 10 micrograms per ml
[14] = tested on: Human A549 cells; assay: Apoptosis induction assay (Annexin-5); format: cell-based; conditions: 10 micrograms per ml, 24 hours
Excerpt: Human A549 cells (carcinomic human alveolar basal epithelial cells) were utilized in the experiments employing the Annexin-5 apoptosis assay.

[15] = tested on: Human Peripheral Blood Mononuclear Cells (PBMC); assay: T cell proliferation assay (PHA, 3H-thymidine); conditions: 10 micrograms per ml
[16] = tested on: Human A549 cells; assay: Propidium iodide cell cycle assay; format: cell-based; conditions: 10 micrograms per ml, 24 hours, FACS
Excerpt: The cell cycle consists of four distinct phases: […]

[17] = tested on: HUVEC; assay: Endothelial tube formation assay; format: cell-based, human; conditions: 10 micrograms per ml, 20 hours
Excerpt: Positive control was vehicle only.

[18] = tested on: Primary Human endothelial cells (HUVEC); assay: Endothelial cell migration assay; format: cell-based; conditions: 10 micrograms per ml, 22 hours
[19] = tested on: Pseudomonas aeruginosa; format: cell-based; conditions: 10 micrograms per ml

Compound: CCNC(=O)[C@@H]1CCCN1C(=O)[C@H](CCCNC(=N)N)NC(=O)[C@@H](CC(C)C)NC(=O)[C@@H](Cc1cn(Cc2ccccc2)cn1)NC(=O)[C@H](Cc1ccc(O)cc1)NC(=O)[C@H](CO)NC(=O)[C@H](Cc1c[nH]c2ccccc12)NC(=O)[C@H](Cc1c[nH]cn1)NC(=O)[C@@H]1CCC(=O)N1 [D-Leu^7-Histrelin, Pyr-His-Trp-Ser-Tyr-D-His(Bzl)-D-Leu-Arg-Pro-NHEt]
- % of control phagocytosis [1]: 102.9%
- % plaque reduction [2]: 2.5%
- % inhibition [3]: 100.0%
- % of LPS induction [4]: 111.5%
- % CPE reduction in HIV-1 infected CEM-SS cells [5]: 0.0%
- viability at 144 h [6]: 100%
- % inhibition [7]: 0.0%
- % inhibition of HBV replication in HEP G2 cells [8]: 61.6%
- IFNγ spleen cells; TH1 response (% of control) [9]: 69.2 % of control
- IL-2 spleen cells (% of control) [9]: 155.8 % of control
- IL-4 spleen cells; TH2 response (% of control) [9]: 235.7 % of control
- IL-5 spleen cells; TH2 response (% of control) [9]: 93.0 % of control
- TNF-a spleen cells; TH1 response (% of control) [9]: 116.4 % of control
- viability at 10 micrograms per ml [10]: 100%
- % of SAC/IL2 induced control [11]: 92.6%
- viability at 144 h, 10 micrograms per ml [12]: 91.4%
- % prevention of ceramide induced apoptosis [13]: 0.0%
- % of induction [14]: 4.3%
- % of PHA induced control [15]: 96.2%
- Cell cycle analysis G0/G1 [16]: 58.9
- Cell cycle analysis G2/M [16]: 9.7
- Cell cycle analysis S [16]: 31.4
- % inhibition of tube formation [17]: 4%
- % inhibition of migration [18]: 8%
- % inhibition [19]: 0.0%
